Reference: patent US20180002288A1, “USE OF PICOLINAMIDES AS FUNGICIDES” (DOW AGROSCIENCES LLC, priority 2014, published 2018)
Like-named read-outs stand apart in the source and are kept apart here.

Tests used:
Zymoseptoria tritici = assay: Leaf Blotch of Wheat fungicidal activity (SEPTTR); format: in vivo; details: Low Volume Cereal Activity at 121.5 g/Ha
Leptosphaeria nodorum = assay: Wheat Glume Blotch fungicidal activity (LEPTNO); format: in vivo; details: Parastagonospora nodorum, 24 h, high volume, 1 Day Protectant, read-out: LEPTNO % Control rating
Procedure: All fungicides were evaluated using the aforementioned method for their activity vs. all target diseases, unless stated otherwise. Wheat leaf blotch and brown rust activity were also evaluated using track spray applications, in which case the fungicides were formulated as EC formulations, containing 0.1% Trycol 5941 in the spray solutions. Wheat plants (variety Yuma) were grown from seed in a greenhouse in 50% mineral soil/50% soil-less Metro mix until the first leaf was fully emerged, with 7-10 seedlings per pot. These plants were inoculated with an aqueous spore suspension of Zymoseptoria tritici either prior to or after fungicide treatments. After inoculation the plants were kept in 100% relative humidity (one day in a dark dew chamber followed by two to three days in a lighted dew chamber at 20° C.) to permit spores to germinate and infect the leaf. The plants were then transferred to a greenhouse set at 20° C. for disease to develop. When disease symptoms were fully expressed on the 1st leaves of untreated plants, infection levels were assessed on a scale of 0 to 100 percent disease severity. Percent disease control was calculated using the ratio of disease severity on treated plants relative to untreated plants. Wheat plants (variety Yuma) were grown from seed in a greenhouse in 50% mineral soil/50% soil-less Metro mix until the first leaf was fully emerged, with 7-10 seedlings per pot. These plants were inoculated with an aqueous spore suspension of Leptosphaeria nodorum 24 hr after fungicide treatments. After inoculation the plants were kept in 100% relative humidity (one day in a dark dew chamber followed by two days in a lighted dew chamber at 20° C.) to permit spores to germinate and infect the leaf. The plants were then transferred to a greenhouse set at 20° C. for disease to develop. Fungicide formulation, application and disease assessment followed the procedures as described in the Example A.

Venturia inaequalis = assay: Apple Scab fungicidal activity (VENTIN); format: in vivo; details: 24 h, high volume, 1 Day Protectant, read-out: VENTIN % Control rating
Procedure: All fungicides were evaluated using the aforementioned method for their activity vs. all target diseases, unless stated otherwise. Wheat leaf blotch and brown rust activity were also evaluated using track spray applications, in which case the fungicides were formulated as EC formulations, containing 0.1% Trycol 5941 in the spray solutions. Wheat plants (variety Yuma) were grown from seed in a greenhouse in 50% mineral soil/50% soil-less Metro mix until the first leaf was fully emerged, with 7-10 seedlings per pot. These plants were inoculated with an aqueous spore suspension of Zymoseptoria tritici either prior to or after fungicide treatments. After inoculation the plants were kept in 100% relative humidity (one day in a dark dew chamber followed by two to three days in a lighted dew chamber at 20° C.) to permit spores to germinate and infect the leaf. The plants were then transferred to a greenhouse set at 20° C. for disease to develop. When disease symptoms were fully expressed on the 1st leaves of untreated plants, infection levels were assessed on a scale of 0 to 100 percent disease severity. Percent disease control was calculated using the ratio of disease severity on treated plants relative to untreated plants. […] Seedlings with two expanding young leaves at the top (older leaves at bottom of the plants were trimmed) were used in the test. Plants were inoculated with a spore suspension of Venturia inaequalis 24 hr after fungicide treatment and kept in a 22° C. dew chamber with 100% relative humidity for 48 hr, and then moved to a greenhouse set at 20° C. for disease to develop. Fungicide formulation, application and disease assessment on the sprayed leaves followed the procedures as described in the Example A.

Alternaria solani = assay: Tomato Early Blight fungicidal activity (ALTESO); format: in vivo; details: 24 h, high volume, 1 Day Protectant, read-out: ALTESO % Control rating
Procedure: All fungicides were evaluated using the aforementioned method for their activity vs. all target diseases, unless stated otherwise. Wheat leaf blotch and brown rust activity were also evaluated using track spray applications, in which case the fungicides were formulated as EC formulations, containing 0.1% Trycol 5941 in the spray solutions. Wheat plants (variety Yuma) were grown from seed in a greenhouse in 50% mineral soil/50% soil-less Metro mix until the first leaf was fully emerged, with 7-10 seedlings per pot. These plants were inoculated with an aqueous spore suspension of Zymoseptoria tritici either prior to or after fungicide treatments. After inoculation the plants were kept in 100% relative humidity (one day in a dark dew chamber followed by two to three days in a lighted dew chamber at 20° C.) to permit spores to germinate and infect the leaf. The plants were then transferred to a greenhouse set at 20° C. for disease to develop. When disease symptoms were fully expressed on the 1st leaves of untreated plants, infection levels were assessed on a scale of 0 to 100 percent disease severity. Percent disease control was calculated using the ratio of disease severity on treated plants relative to untreated plants. Tomato plants (variety Outdoor Girl) were propagated in soil-less Metro mix, with each pot having one plant, and used when 12 to 14 days old. Test plants were inoculated with an aqueous spore suspension of Alternaria solani 24 hr after fungicide treatments. After inoculation the plants were kept in a dew room at 22° C. with 100% relative humidity for 48 hr to permit spores to germinate and infect the leaf. The plants were then transferred to a growth room at 22° C. for disease to develop. Fungicide formulation, application and disease assessment on the sprayed leaves followed the procedures as described in the Example A.

Phakopsora pachyrhizi = assay: Asian Soybean Rust fungicidal activity (PHAKPA); details: Phakopsora pachyrhizi, in Glycine max
[1] = 24 h, 1 Day Protectant, read-out: SEPTTR 1DP (Wheat Leaf Blotch, 1 Day Protectant)
[2] = 72 h, 3 Day Curative, read-out: SEPTTR 3DC (Wheat Leaf Blotch, 3 Day Curative)
[3] = 24 h, read-out: PHAKPA 1DP % Control rating, soybean, high volume, 25 ppm, 1 Day Protectant
[4] = 72 h, read-out: PHAKPA 3DC % Control rating, soybean, high volume, 25 ppm, 3 Day Curative

SMILES	pest or weed control at 121.5 g/ha (Zymoseptoria tritici; [1])	pest or weed control at 121.5 g/ha (Zymoseptoria tritici; [2])	pest or weed control at 100 ppm (Leptosphaeria nodorum)	pest or weed control at 100 ppm (Venturia inaequalis)	pest or weed control at 100 ppm (Alternaria solani)	pest or weed control at 25 ppm (Phakopsora pachyrhizi; [3])	pest or weed control at 25 ppm (Phakopsora pachyrhizi; [4])
COc1ccnc(C(=O)N[C@@H](C)C(=O)O[C@@H](C)C(Oc2ccc(F)cc2)c2ccc(F)cc2)c1OCOC(C)=O (stereo partly shown) [Example 238]	> 80%	> 80%	> 80%	> 80%	> 80%	< 80%	< 80%
COc1ccnc(C(=O)N[C@@H](C)C(=O)O[C@@H](C)[C@H](Oc2ccc(F)cc2)c2ccccc2)c1OCOC(C)=O [Example 237]	> 80%	> 80%	> 80%	< 80%	< 80%	< 80%	< 80%
COc1ccnc(C(=O)N[C@@H](C)C(=O)O[C@@H](C)[C@H](Oc2ccccc2)c2ccc(C)cc2)c1OCOC(C)=O [Example 252]	> 80%	> 80%	> 80%	< 80%	< 0%		
COc1ccnc(C(=O)N[C@@H](C)C(=O)O[C@@H](C)[C@H](Oc2ccccc2Cl)c2ccccc2)c1OC(C)=O [Example 205]	> 80%	> 80%	> 80%		< 80%	< 80%	< 80%
COc1ccnc(C(=O)N[C@@H](C)C(=O)O[C@@H](C)[C@H](Oc2ccccc2)c2ccc3ccccc3c2)c1OCOC(C)=O [Example 263]	> 80%	> 80%	> 80%	< 80%	< 0%		
COc1ccccc1[C@@H](Oc1ccccc1)[C@H](C)OC(=O)[C@H](C)NC(=O)c1nccc(OC)c1OCOC(C)=O [Example 255]	> 80%	> 80%	> 80%	< 80%	< 0%	> 80%	< 0%
COc1ccnc(C(=O)N[C@@H](C)C(=O)O[C@@H](C)[C@H](Oc2ccccc2)c2ccc(F)cc2C)c1OCOC(C)=O [Example 259]	> 80%	> 80%	> 80%	< 80%	< 0%	> 80%	< 0%
COc1cc(F)ccc1[C@@H](Oc1ccccc1)[C@H](C)OC(=O)[C@H](C)NC(=O)c1nccc(OC)c1OCOC(C)=O [Example 256]	> 80%	> 80%	> 80%		< 80%	> 80%	< 0%
COc1ccnc(C(=O)N[C@@H](C)C(=O)O[C@@H](C)[C@H](Oc2ccccc2)c2ccc(F)cc2F)c1OCOC(C)=O [Example 250]	> 80%	> 80%	< 0%		< 0%	> 80%	< 80%
COc1ccnc(C(=O)N[C@@H](C)C(=O)O[C@@H](C)[C@H](Oc2cccc(Cl)c2)c2ccccc2)c1OCOC(C)=O [Example 202]	> 80%	> 80%	< 80%		< 0%	> 80%	< 80%
COc1ccnc(C(=O)N[C@@H](C)C(=O)O[C@@H](C)[C@H](Oc2ccc(F)cc2)c2ccccc2)c1OC(C)=O [Example 235]	> 80%	> 80%	> 80%	< 80%	< 80%	< 80%	< 80%
COc1ccnc(C(=O)N[C@@H](C)C(=O)O[C@@H](C)C(Oc2ccc(F)cc2)c2ccccc2)c1OC(C)=O (stereo partly shown) [Example 236]	> 80%	> 80%	> 80%	> 80%	< 80%	> 80%	< 0%
COc1ccnc(C(=O)N[C@@H](C)C(=O)O[C@@H](C)[C@H](Oc2cccc(F)c2)c2ccccc2)c1OCOC(C)=O [Example 187]	> 80%	> 80%	> 80%		< 80%	> 80%	< 80%
COc1ccnc(C(=O)N[C@@H](C)C(=O)O[C@@H](C)[C@H](Oc2ccccc2)c2ccccc2)c1OCOC(C)=O [Example 183]	> 80%	> 80%	> 80%	< 80%	< 80%	< 80%	< 80%
COc1ccnc(C(=O)N[C@@H](C)C(=O)O[C@@H](C)[C@H](Oc2ccccc2)c2ccc(F)cc2Cl)c1OCOC(C)=O [Example 260]	> 80%	> 80%	> 80%	< 80%	< 0%	> 80%	< 80%
COc1ccnc(C(=O)N[C@@H](C)C(=O)O[C@@H](C)[C@H](Oc2cc(F)cc(Cl)c2)c2ccccc2)c1OC(C)=O [Example 207]	> 80%	> 80%	> 80%	> 80%	< 0%	< 80%	< 80%
